Results taken from patent US20230416262A1, “TRPML MODULATORS” (Casma Therapeutics, Inc., priority 2020, published 2023).

Tests used:
TFEB = TFEB nuclear translocation assay; format: cell-based; details: Homo sapiens; HeLa wt or HeLa TRPML1 KO cells, treated for 2 hrs; ratio of nuclear to ring-region TFEB intensity
Summary of the method: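 HeLa wild-type or TRPML1 KO cells treated 2 h with compound at 37 °C, PFA-fixed, immunostained for TFEB (Alexa 488) with Hoechst nuclei. Imaged at ×20, four fields/well. Value is ratio of nuclear to perinuclear-ring TFEB intensity, with nuclei counts.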

THP-1 cells = experiment: Lamp1 lysosomal exocytosis assay; format: cell-based; details: Homo sapiens, 55 min, 55 min incubation, top dose 20 μM
Protocol: For the Lamp1 lysosomal exocytosis assay, a human monocytic suspension cell line (THP-1) was used. Cells in culture should be used between a density of […] and 1.2e6/mL on the day of the assay. For each 96-well assay plate to be used, pellet 11e6 THP-1 cells at 330×g for 5 min in a 50 mL conical tube, aspirate media and resuspend in 22 mLs of RPMI 1640/10% FBS media for a final cell concentration of 5e5/mL. Prior to addition of cells to the assay plate, perform a 7 pt dilution curve using a top dose of compound at 2 mM and use a 3-fold serial dilution, the 8th point is DMSO only. Final top dose of compound in the assay was 20 μM. 2 μL of each serial dilution was transferred to a new 96-well v-bottom assay plate. 198 μL of cells (1e5 total cells/well) was prepared as above in each well of the assay plate and incubated at 37° C./5% CO2/95% RH for 55 min. After the 55 min incubation, cells were pelleted for 5 min at 4 C at 400×g in a tabletop centrifuge. The media was separated from the cell pellets in the plate. The pellets were washed using 200 μL ice cold buffer (PBS Ca^++/Mg^++ containing 2% final BSA and 80 μM final Dynasore). Cells were pelleted again at 400×g-5 min in a 4° C. tabletop centrifuge. Buffer was separated from cells. Each well was suspended in 75 uL Lamp1-PE antibody buffer (PBS Ca^++/Mg^++ containing 2% final BSA with 80 uM final Dynasore and 1:800 final dilution of Lamp 1-PE labeled antibody). After a 45 min antibody incubation on ice, 25 μL of sytox green was added (I drop/mL buffer), and each well was mixed and incubated for an additional 15 min on ice. After the 15 min sytox green incubation, 100 μL of ice-cold buffer (PBS Ca^++/Mg^++ containing 2% final BSA and 80 uM final Dynasore) was added and cells were pelleted for 5 min at 400×g. The buffer was removed and each sample was resuspended in 100 uL of ice-cold buffer (PBS Ca^++/Mg^++ containing 2% final BSA and 80 μM final Dynasore). FACs gating strategy: FACS analyze for sytox green (A488) and Lamp1-PE (DsRed). First gate against FSC-A/SSC-A to find non-fragmented or ‘live’ THP-1 cells. Next gate against FITC-A/FSC-A to omit sytox green positive cells. Then gate for FSC-A/FSC-H to remove any doublet cells. The last gate was a histogram for PE. The statistics for ‘count’ and ‘geometric mean fluorescence intensity’ (gWFI) for PE were repoted on the last gate.
Compounds having an activity designated as “++++” provided an exocytosis readout of ≤0.50 μM; compounds having an activity designated as “+++” provided an exocytosis readout of 0.51-1.00 μM; compounds having an activity designated as “++” provided an exocytosis readout of 1.01-5.00 μM; and compounds having an activity designated as “+” provided an exocytosis readout of ≥5.01 μM

Row | Compound | EC50 (TFEB) [µM] | EC50 (THP-1 cells) [µM]
1 | CC1(C)Cc2cc(S(=O)(=O)N3CC4(CCCC4)c4ccccc43)ccc2O1 [Compound I-2, 1′-[(2,2-dimethyl-2,3-dihydro-1-benzofuran-5-yl)sulfonyl]-1′,2′-dihydrospiro[cyclopentane-1,3′-indole]] | 2.01 to 8 | ≥ 5.01
2 | CC1(C)COc2ccc(S(=O)(=O)N3CC4(CCCC4)c4ccccc43)cc21 [Compound I-5, 1′-[(3,3-dimethyl-2,3-dihydro-1-benzofuran-5-yl)sulfonyl]-1′,2′-dihydrospiro[cyclopentane-1,3′-indole]] | ≤ 2 | ≥ 5.01
3 | O=S(=O)(c1ccc(OC(F)(F)F)cc1)N1CC2(CCCC2)c2ccccc21 [Compound I-31, 1′-[4-(trifluoromethoxy)benzenesulfonyl]-1′,2′-dihydrospiro[cyclopentane-1,3′-indole]] | 2.01 to 8 | ≥ 5.01
4 | O=S(=O)(c1ccc2c(c1)CCC(C(F)F)O2)N1CC2(CCCC2)c2ccccc21 (stereo not shown) [Compound I-35, 1′-{[2-(difluoromethyl)-3,4-dihydro-2H-1-benzopyran-6-yl]sulfonyl}-1′,2′-dihydrospiro[cyclopentane-1,3′-indole]] | 2.01 to 8 | ≥ 5.01
5 | O=S(=O)(c1ccc(C2CC2(F)F)cc1)N1CC2(CCCC2)c2ccccc21 (stereo not shown) [Compound I-48, 1′-[4-(2,2-difluorocyclopropyl)benzenesulfonyl]-1′,2′-dihydrospiro[cyclopentane-1,3′-indole]] | 2.01 to 8 | ≥ 5.01
6 | CC1(C)Oc2ccc(S(=O)(=O)N3CC4(CCCC4)c4ccccc43)cc2O1 [Compound I-57, 1′-[(2,2-dimethyl-2H-1,3-benzodioxol-5-yl)sulfony1]-1′,2′-dihydrospiro[cyclopentane-1,3′-indole]] | 2.01 to 8 | ≥ 5.01
7 | O=S(=O)(c1ccc2c(c1)CCC2)N1CC2(CCCC2)c2ccccc21 [Compound I-67, 1′-((2,3-dihydro-1H-inden-5-yl)sulfonyl)spiro[cyclopentane-1,3′-indoline]] | 2.01 to 8 | ≥ 5.01
8 | CN(C)S(=O)(=O)c1ccc(S(=O)(=O)N2CC3(CCCC3)c3ccccc32)cc1 [Compound I-68, 4-({1′,2′-dihydrospiro[cyclopentane-1,3′-indol]-1′-yl}sulfonyl)-N,N-dimethylbenzene-1-sulfonamide] | ≤ 2 | ≤ 0.5
9 | CN(C)S(=O)(=O)c1ccc(S(=O)(=O)N2CC3(CCN(C(=O)C(C)(C)C)C3)c3ccccc32)cc1 (stereo not shown) [Compound I-73, 4-{[1′-(2,2-dimethylpropanoyl)-1,2-dihydrospiro[indole-3,3′-pyrrolidin]-1-yl]sulfonyl}-N,N-dimethylbenzene-1-sulfonamide] | 2.01 to 8 | ≥ 5.01
10 | Cc1cccc(S(=O)(=O)N2CC3(CCCC3)c3ccccc32)c1 [Compound I-74, 1′-(3-methylbenzenesulfonyl)-1′,2′-dihydrospiro[cyclopentane-1,3′-indole]] | 2.01 to 8 | ≥ 5.01
11 | Cc1ccc2c(c1)N(S(=O)(=O)c1ccc(S(=O)(=O)N(C)C)cc1)CC21CCCC1 [Compound I-79, N,N-dimethyl-4-((6′-methylspiro[cyclopentane-1,3′-indolin]-1′-yl)sulfonyl)benzenesulfonamide] | ≤ 2 | ≤ 0.5
12 | O=C(OCc1ccccc1)N1CCC2(CC1)CN(S(=O)(=O)Cc1ccccc1)c1ccccc12 [Compound I-80, benzyl 1-(benzylsulfonyl)spiro[indoline-3,4′-piperidine]-1′-carboxylate] | ≤ 2 | ≥ 5.01
13 | O=C(OCc1ccccc1)N1CCC2(CC1)CN(S(=O)(=O)c1ccc(C(F)F)cc1)c1ccccc12 [Compound I-81] | ≤ 2 | ≤ 0.5
14 | CN1CCC2(CC1)CN(S(=O)(=O)c1ccc(C(F)F)cc1)c1ccccc12 [Compound I-83] | ≥ 10 | ≥ 5.01
15 | O=C(C1CCC2(CC1)CN(S(=O)(=O)c1ccc(C(F)F)cc1)c1ccccc12)N1CCC2(CCOC2)C1 (stereo not shown) [Compound I-240, (1′-((4-(difluoromethyl)phenyl)sulfonyl)spiro[cyclohexane-1,3′-indolin]-4-y1)(2-oxa-7-azaspiro[4.4]nonan-7-yl)methanone] |  | ≥ 5.01
16 | CCn1cc(CNC(=O)C2CCC3(CC2)CN(S(=O)(=O)c2ccc(C(F)F)cc2)c2ccccc23)cn1 (stereo not shown) [Compound I-241, 1′-((4-(difluoromethyl)phenyl)sulfonyl)-N-((1-ethyl-1H-pyrazol-4-yl)methyl)spiro[cyclohexane-1,3′-indoline]-4-carboxamide] |  | ≥ 5.01
17 | CN(Cc1ccon1)C(=O)C1CCC2(CC1)CN(S(=O)(=O)c1ccc(C(F)F)cc1)c1ccccc12 (stereo not shown) [Compound I-242, 1′-((4-(difluoromethyl)phenyl)sulfonyl)-N-(isoxazol-3-ylmethyl)-N-methylspiro[cyclohexane-1,3′-indoline]-4-carboxamide] |  | ≥ 5.01
18 | CN(C(=O)C1CCC2(CC1)CN(S(=O)(=O)c1ccc(C(F)F)cc1)c1ccccc12)c1ccnn1C (stereo not shown) [Compound I-243, 1′-((4-(difluoromethyl)phenyl)sulfonyl)-N-methyl-N-(1-methyl-1H-pyrazol-5-yl)spiro[cyclohexane-1,3′-indoline]-4-carboxamide] |  | ≥ 5.01
19 | O=C(C1CCC2(CC1)CN(S(=O)(=O)c1ccc(C(F)F)cc1)c1ccccc12)N1CCC2(COC2)C1 (stereo not shown) [Compound I-244, (1′-((4-(difluoromethyl)phenyl)sulfonyl)spiro[cyclohexane-1,3′-indolin]-4-yl)(2-oxa-6-azaspiro[3.4]octan-6-yl)methanone] |  | ≥ 5.01
20 | CN(C(=O)C1CCC2(CC1)CN(S(=O)(=O)c1ccc(C(F)F)cc1)c1ccccc12)c1nccn1C (stereo not shown) [Compound I-245, 1′-((4-(difluoromethyl)phenyl)sulfonyl)-N-methyl-N-(1-methyl-1H-imidazol-2-yl)spiro[cyclohexane-1,3′-indoline]-4-carboxamide] |  | ≥ 5.01
21 | O=C(CCC(F)(F)F)N1CCC2(CC1)CN(S(=O)(=O)c1ccc(C(F)F)cc1)c1ccccc12 [Compound I-251, 1-(1-((4-(difluoromethyl)phenyl)sulfonyl)spiro[indoline-3,4′-piperidin]-1′-y1)-4,4,4-trifluorobutan-1-one] |  | 1.01 to 5
22 | O=C(CCC1CCCO1)N1CCC2(CC1)CN(S(=O)(=O)c1ccc(C(F)F)cc1)c1ccccc12 (stereo not shown) [Compound I-252, 1-(1-((4-(difluoromethyl)phenyl)sulfonyl)spiro[indoline-3,4′-piperidin]-1′-yl)-3-(tetrahydrofuran-2-yl)propan-1-one] |  | ≥ 5.01
23 | O=C(CCC1CCOC1)N1CCC2(CC1)CN(S(=O)(=O)c1ccc(C(F)F)cc1)c1ccccc12 (stereo not shown) [Compound I-253, 1-(1-((4-(difluoromethyl)phenyl)sulfonyl)spiro[indoline-3,4′-piperidin]-1′-y1)-3-(tetrahydrofuran-3-yl)propan-1-one] |  | ≥ 5.01
24 | O=C(COC1CCOC1)N1CCC2(CC1)CN(S(=O)(=O)c1ccc(C(F)F)cc1)c1ccccc12 (stereo not shown) [Compound I-254, 1-(1-((4-(difluoromethyl)phenyl)sulfonyl)spiro[indoline-3,4′-piperidin]-1′-yl)-2-((tetrahydrofuran-3-yl)oxy)ethan-1-one] |  | ≥ 5.01
25 | O=C(CC1CCOC1)N1CCC2(CC1)CN(S(=O)(=O)c1ccc(C(F)F)cc1)c1ccccc12 (stereo not shown) [Compound I-255, 1-(1-((4-(difluoromethyl)phenyl)sulfonyl)spiro[indoline-3,4′-piperidin]-1′-yl)-2-(tetrahydrofuran-3-yl)ethan-1-one] |  | ≥ 5.01
26 | O=C(CC1CCCO1)N1CCC2(CC1)CN(S(=O)(=O)c1ccc(C(F)F)cc1)c1ccccc12 (stereo not shown) [Compound I-256, 1-(1-((4-(difluoromethyl)phenyl)sulfonyl)spiro[indoline-3,4′-piperidin]-1′-y1)-2-(tetrahydrofuran-2-yl)ethan-1-one] |  | ≥ 5.01
